For 34 compounds, IC50 results are on record in patent publication US10399991B2, “Kv1.3 inhibitors and their medical applications” (4SC AG, priority 2015, dated 2019).

Sequence of Kv1.3 (P22001 whole entry): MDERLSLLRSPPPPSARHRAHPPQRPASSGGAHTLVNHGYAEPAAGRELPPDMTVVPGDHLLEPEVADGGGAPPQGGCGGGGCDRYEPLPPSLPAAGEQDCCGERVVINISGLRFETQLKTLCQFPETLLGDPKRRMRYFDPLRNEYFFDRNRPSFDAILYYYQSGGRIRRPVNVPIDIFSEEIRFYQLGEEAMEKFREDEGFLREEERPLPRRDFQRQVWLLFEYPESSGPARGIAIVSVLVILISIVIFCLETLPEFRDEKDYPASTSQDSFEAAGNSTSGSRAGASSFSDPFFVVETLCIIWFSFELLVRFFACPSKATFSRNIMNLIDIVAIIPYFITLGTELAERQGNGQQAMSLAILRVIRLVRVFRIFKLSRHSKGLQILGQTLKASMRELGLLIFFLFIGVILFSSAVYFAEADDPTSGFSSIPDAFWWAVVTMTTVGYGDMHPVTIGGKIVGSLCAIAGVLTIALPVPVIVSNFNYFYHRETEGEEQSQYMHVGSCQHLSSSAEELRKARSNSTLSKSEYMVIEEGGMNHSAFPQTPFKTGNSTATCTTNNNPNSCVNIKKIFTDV

The test deals with Kv1.3 (Homo sapiens (Human), UniProt P22001). The experiment in a line: Patch-clamp assay for inhibitory activity on Kv1.3 (whole cell patch-clamp recording). As to conditions: n≥2 per concentration. Format: cell-based. The method, then:
Patch-Clamp Assay for Inhibitory Activity on Kv1.3
For a description of a Kv1.3 patch-clamp assay, see Grissmer et al., Mol. Pharmacol. 1994, 45, 1227; whole cell patch-clamp recording was performed with n≥2 individual experiments at each compound concentration using different cells. Three or more different concentrations were determined per dose response curve.
As for `Cc1c(C#N)oc2c(C)c3oc(=O)cc(-c4ccccc4)c3cc12` [Example 13, 3,9-dimethyl-7-oxo-5-phenyl-7H-furo[3,2-g]chromene-2-carbonitrile], the IC50 was 1.5 to 3 µM.
Next, `Cc1ccccc1-c1cc(=O)[nH]c2c(C)c3occ(C)c3cc12` [Example 29, 3,9-dimethyl-5-(o-tolyl)furo[3,2-g]quinolin-7(8H)-one]: 1.5 to 3 µM; `Cc1noc2c(C)c3[nH]c(=O)cc(-c4ccccc4)c3cc12` [Example 51, 3,9-dimethyl-5-phenylisoxazolo[4,5-g]quinolin-7(8H)-one]: 0.501 to 1.5 µM; `Cc1c(-c2ccccc2)c2cc3c(C)noc3c(C)c2n(C)c1=O` [Example 52, 3,6,8,9-tetramethyl-5-phenylisoxazolo[4,5-g]quinolin-7(8H)-one]: 0.501 to 1.5 µM.
Next, `Cc1c(CN(C)C)oc2c(C)c3oc(=O)cc(-c4ccccc4)c3cc12` [Example 15, 2-((dimethylamino)methyl)-3,9-dimethyl-5-phenyl-7H-furo[3,2-g]chromen-7-one]: 1.5 to 3 µM.
Turning to `Cc1nc2cc3c(-c4ccccc4)c(C)c(=O)oc3c(C)c2o1` [Example 48, 2,4,7-trimethyl-8-phenyl-6H-chromeno [6,7-d]oxazol-6-one], the IC50 lay in the range of 0.501 to 1.5 µM.
Under `Cc1coc2c(C)c3oc(=O)cc(-c4cccc(C(F)(F)F)c4)c3cc12` [Example 4, 3,9-dimethyl-5-(3-(trifluoromethyl)phenyl)-7H-furo[3,2-g]chromen-7-one] stands 1.5 to 3 µM; under `Cc1c(-c2ccccc2F)c2cc3c(C)coc3c(C)c2n(C)c1=O` [Example 61, 5-(2-fluorophenyl)-3,6,8,9-tetramethylfuro[3,2-g]quinolin-7(8H)-one], no more than 0.5 µM; under `Cc1c(-c2cccnc2)c2cc3c(C)noc3c(C)c2n(C)c1=O` [Example 56, 3,6,8,9-tetramethyl-5-(pyridin-3-yl)isoxazolo[4,5-g]quinolin-7(8H)-one], 1.5 to 3 µM.
Next, `Cc1coc2c(C)c3c(cc12)c(-c1ccccc1)cc(=O)n3C` [Example 32, 3,8,9-trimethyl-5-phenylfuro[3,2-g]quinolin-7(8H)-one]: 1.5 to 3 µM; `Cc1c(-c2ccccc2)c2cc3c(C)noc3c(C)c2oc1=O` [Example 35, 3,6,9-trimethyl-5-phenyl-7H-chromeno[6,7-d]isoxazol-7-one]: 0.501 to 1.5 µM; `Cc1nc2cc3c(-c4ccccc4)cc(=O)oc3c(C)c2o1` [Example 38, 2,4-dimethyl-8-phenyl-6H-chromeno[6,7-d]oxazol-6-one]: 0.501 to 1.5 µM.
Next, `Cc1coc2c(C)c3oc(=O)cc(-c4ccccc4F)c3cc12` [Example 8, 5-(2-fluorophenyl)-3,9-dimethyl-7H-furo[3,2-g]chromen-7-one]: no more than 0.5 µM; `Cc1c2ocnc2cc2c(-c3ccccc3)cc(=O)oc12` [Example 47, 4-methyl-8-phenyl-6H-chromeno[6,7-d]oxazol-6-one]: 1.5 to 3 µM; `COc1ncccc1-c1c(C)c(=O)oc2c(C)c3occ(C)c3cc12` [Example 62, 5-(2-methoxypyridin-3-yl)-3,6,9-trimethyl-7H-furo[3,2-g]chromen-7-one]: 0.501 to 1.5 µM.
Turning to `Cc1ccccc1-c1cc(=O)oc2c(C)c3occ(C)c3cc12` [Example 58, 3,9-dimethyl-5-(o-tolyl)-7H-furo[3,2-g]chromen-7-one], the IC50 lay in the range of 0.501 to 1.5 µM.
The compound `COc1cccc(-c2c(C)c(=O)oc3c(C)c4occ(C)c4cc23)c1` [Example 6, 5-(3-methoxyphenyl)-3,6,9-trimethyl-7H-furo[3,2-g]chromen-7-one] came in with an IC50 of 0.501 to 1.5 µM.
Compound `Cc1coc2nc3oc(=O)cc(-c4ccccc4)c3cc12` [Example 24, 3-methyl-5-phenyl-7H-furo[2,3-b]pyrano[3,2-e]pyridin-7-one] displayed an IC50 of 0.501 to 1.5 µM.
`Cc1c(-c2ccccc2)c2cc3c(C)noc3c(C)c2[nH]c1=O` [Example 36, 3,6,9-trimethyl-5-phenylisoxazolo[4,5-g]quinolin-7(8H)-one] displayed an IC50 of no more than 0.5 µM.
As for `Cc1coc2cc3oc(=O)cc(-c4ccccc4Cl)c3cc12` [Example 21, 5-(2-chlorophenyl)-3-methyl-7H-furo[3,2-g]chromen-7-one], the half-maximal inhibitory concentration (IC50) lay within 0.501 to 1.5 µM.
Under `COc1cccc(-c2cc(=O)oc3cc4occ(C)c4cc23)c1` [Example 20, 5-(3-methoxyphenyl)-3-methyl-7H-furo[3,2-g]chromen-7-one] stands 0.501 to 1.5 µM; under `COc1ccncc1-c1c(C)c(=O)oc2c(C)c3occ(C)c3cc12` [Example 63, 5-(4-methoxypyridin-3-yl)-3,6,9-trimethyl-7H-furo[3,2-g]chromen-7-one], 1.5 to 3 µM; under `Cc1coc2cc3oc(=O)cc(-c4cccc(Cl)c4)c3cc12` [Example 22, 5-(3-chlorophenyl)-3-methyl-7H-furo[3,2-g]chromen-7-one], 0.501 to 1.5 µM.
Regarding `CNCc1nc2cc3c(-c4ccccc4)cc(=O)oc3c(C)c2o1` [Example 39, 4-methyl-2-((methylamino)methyl)-8-phenyl-6H-chromeno[6,7-d]oxazol-6-one], the IC50 lay within 1.5 to 3 µM.
Under `Cc1coc2c(C)c3oc(=O)cc(-c4ccccc4Cl)c3cc12` [Example 3, 5-(2-chlorophenyl)-3,9-dimethyl-7H-furo[3,2-g]chromen-7-one] stands 1.5 to 3 µM.
The compound `Cc1ccccc1-c1c(C)c(=O)n(C)c2c(C)c3occ(C)c3cc12` [Example 59, 3,6,8,9-tetramethyl-5-(o-tolyl)furo[3,2-g]quinolin-7(8H)-one] displayed an IC50 of 0.501 to 1.5 µM.
Under `Cc1ccccc1-c1cc(=O)oc2cc3occ(C)c3cc12` [Example 17, 3-methyl-5-(o-tolyl)-7H-furo[3,2-g]chromen-7-one] stands 0.501 to 1.5 µM.
`Cc1coc2c(C)c3oc(=O)cc(-c4cccnc4)c3cc12` [Example 44, 3,9-dimethyl-5-(pyridin-3-yl)-7H-furo[3,2-g]chromen-7-one]: the IC50 was in the range of 1.5 to 3 µM.
In turn, `COc1ccccc1-c1cc(=O)oc2cc3occ(C)c3cc12` [Example 19, 5-(2-methoxyphenyl)-3-methyl-7H-furo[3,2-g]chromen-7-one] showed an IC50 of 0.501 to 1.5 µM.
Next, `Cc1coc2c(C)c3c(cc12)c(-c1ccccc1)c(Br)c(=O)n3C` [Example 33, 6-bromo-3,8,9-trimethyl-5-phenylfuro[3,2-g]quinolin-7(8H)-one]: no more than 0.5 µM; `Cc1ccccc1-c1c(Br)c(=O)[nH]c2c(C)c3occ(C)c3cc12` [Example 28, 6-bromo-3,9-dimethyl-5-(o-tolyl)furo[3,2-g]quinolin-7(8H)-one]: 0.501 to 1.5 µM.
Under `Cc1c(-c2ccccc2)c2cc3c(C)c(CN(C)C)oc3c(C)c2oc1=O` [Example 46, 2-((dimethylamino)methyl)-3,6,9-trimethyl-5-phenyl-7H-furo[3,2-g]chromen-7-one] stands 1.5 to 3 µM; under `COc1c2occ(C)c2cc2c(-c3ccccc3)cc(=O)oc12` [Example 23, 9-methoxy-3-methyl-5-phenyl-7H-furo[3,2-g]chromen-7-one], 1.5 to 3 µM.
Under `Cc1coc2c(C)c3oc(=O)cc(-c4ccccn4)c3cc12` [Example 57, 3,9-dimethyl-5-(pyridin-2-yl)-7H-furo[3,2-g]chromen-7-one] stands 1.5 to 3 µM.
